Data as given in ChEMBL document CHEMBL3351620, “Structure-activity relationships and molecular modeling studies of novel arylpiperazinylalkyl 2-benzoxazolones and 2-benzothiazolones as 5-HT(7) and 5-HT(1A) receptor ligands” (Eur J Med Chem, 2014).

Columns and labels:
Homo sapiens = species on record: Homo sapiens; test: Selectivity ratio of Ki for human 5HT1A receptor to Ki for human 5HT7 receptor
[1] = biological target: T1, 5-hydroxytryptamine receptor 1A (Homo sapiens, UniProt P08908); test: Displacement of [3H]8-OH-DPAT from human 5-HT1A receptor transfected in […] cells after 30 mins by liquid scintillation spectrometry; type: cell-based
T1 sequence (P08908 whole entry): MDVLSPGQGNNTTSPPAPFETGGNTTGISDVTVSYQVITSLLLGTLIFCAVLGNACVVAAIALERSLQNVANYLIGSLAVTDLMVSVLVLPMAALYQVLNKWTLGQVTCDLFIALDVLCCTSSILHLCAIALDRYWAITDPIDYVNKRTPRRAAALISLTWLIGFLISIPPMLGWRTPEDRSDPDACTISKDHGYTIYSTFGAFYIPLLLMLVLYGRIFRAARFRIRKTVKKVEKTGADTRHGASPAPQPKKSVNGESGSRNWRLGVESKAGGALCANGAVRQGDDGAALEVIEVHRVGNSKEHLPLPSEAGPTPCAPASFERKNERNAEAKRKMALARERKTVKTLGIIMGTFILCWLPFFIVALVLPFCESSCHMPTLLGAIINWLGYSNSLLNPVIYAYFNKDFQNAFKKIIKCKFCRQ

[2] = biological target: T2, 5-hydroxytryptamine receptor 7 (Homo sapiens, UniProt P34969); test: Displacement of [3H]5-HT from human 5HT7 receptor transfected in […] cells after 30 mins by liquid scintillation spectrometry; type: cell-based
T2 sequence (P34969 whole entry): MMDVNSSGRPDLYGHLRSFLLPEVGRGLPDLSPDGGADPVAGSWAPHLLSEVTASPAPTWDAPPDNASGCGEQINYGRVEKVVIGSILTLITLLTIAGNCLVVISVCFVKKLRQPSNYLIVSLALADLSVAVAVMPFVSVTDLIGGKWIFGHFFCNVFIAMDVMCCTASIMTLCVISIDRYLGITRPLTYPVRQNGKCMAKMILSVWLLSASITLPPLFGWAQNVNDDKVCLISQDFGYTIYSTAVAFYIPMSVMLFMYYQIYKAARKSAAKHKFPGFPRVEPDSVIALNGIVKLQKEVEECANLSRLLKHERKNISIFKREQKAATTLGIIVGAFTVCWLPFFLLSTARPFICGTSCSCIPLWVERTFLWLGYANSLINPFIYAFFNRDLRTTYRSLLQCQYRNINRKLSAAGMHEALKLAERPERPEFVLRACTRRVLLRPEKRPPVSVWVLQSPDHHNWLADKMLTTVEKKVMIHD

[3] = biological target: T2, 5-hydroxytryptamine receptor 7; test: Displacement of [3H]5-HT from human 5HT7 receptor transfected in […] cells ay 1 uM after 30 mins by liquid scintillation spectrometry; type: cell-based

O=c1oc2ccccc2n1CCCCN1CCN(c2ccccc2)CC1
Ratio Ki (Homo sapiens): 3.43 | Ki [1]: 0.0903 µM | Ki [2]: 0.0263 µM

O=c1sc2ccccc2n1CCCCN1CCN(c2ccc(Cl)cc2)CC1
Ratio Ki (Homo sapiens): 1.77 | Ki [1]: 0.0833 µM | Ki [2]: 0.0468 µM

O=C1Nc2cc(F)ccc2C1CCCCN1CCN(c2cccc(Cl)c2)CC1 (stereo not drawn)
Ki [1]: 0.0067 µM | Ki [2]: 0.118 µM

COc1ccccc1N1CCN(CCCCCCCn2c(=O)sc3ccccc32)CC1
Ratio Ki (Homo sapiens): 0.02 | Ki [1]: 0.00021 µM | Ki [2]: 0.00849 µM

COc1ccccc1N1CCN(CCCCCCCn2c(=O)oc3ccccc32)CC1
Ratio Ki (Homo sapiens): 0.02 | Ki [1]: 0.00019 µM | Ki [2]: 0.00773 µM

O=c1sc2ccccc2n1CCCCCCCN1CCN(c2ccccc2)CC1
Ratio Ki (Homo sapiens): 0.03 | Ki [1]: 0.00027 µM | Ki [2]: 0.00758 µM

COc1ccccc1N1CCN(CCCCCn2c(=O)sc3ccccc32)CC1
Ratio Ki (Homo sapiens): 1.38 | Ki [1]: 0.00713 µM | Ki [2]: 0.00516 µM

O=c1sc2ccccc2n1CCCCN1CCc2ccccc2C1
Ratio Ki (Homo sapiens): 26.4 | Ki [1]: 0.0749 µM | Ki [2]: 0.00284 µM

COc1ccccc1N1CCN(CCCCCn2c(=O)oc3ccccc32)CC1
Ratio Ki (Homo sapiens): 2.01 | Ki [1]: 0.0119 µM | Ki [2]: 0.0059 µM

O=c1sc2ccccc2n1CCCCN1CCN(Cc2ccccc2)CC1
Ratio Ki (Homo sapiens): 16.6 | Ki [1]: 0.695 µM | Ki [2]: 0.0419 µM

COc1ccccc1N1CCN(CCCCCCn2c(=O)sc3ccccc32)CC1
Ratio Ki (Homo sapiens): 0.14 | Ki [1]: 0.00043 µM | Ki [2]: 0.0029 µM

COc1ccccc1N1CCN(CCCCCCn2c(=O)oc3ccccc32)CC1
Ratio Ki (Homo sapiens): 0.11 | Ki [1]: 0.0013 µM | Ki [2]: 0.0117 µM

COc1ccccc1N1CCN(CCCCC(=O)NC2CCCc3ccccc32)CC1 (stereo not drawn)
Ki [1]: 0.00605 µM | Ki [2]: 0.009 µM

COc1ccccc1N1CCN(CCCCn2c(=O)oc3ccccc32)CC1
Ratio Ki (Homo sapiens): 1.85 | Ki [1]: 0.0192 µM | Ki [2]: 0.0103 µM

COc1ccccc1N1CCN(CCCn2c(=O)[nH]c3ccccc32)CC1
Ki [1]: 0.04 µM | Ki [2]: 0.0034 µM

O=c1sc2ccccc2n1CCCCCCN1CCN(c2ccccc2)CC1
Ratio Ki (Homo sapiens): 0.3 | Ki [1]: 0.00091 µM | Ki [2]: 0.00296 µM

O=c1sc2ccccc2n1CCCCN1CCN(c2cccc(Cl)c2)CC1
Ratio Ki (Homo sapiens): 3.56 | Ki [1]: 0.00613 µM | Ki [2]: 0.00172 µM

Cc1ccccc1N1CCN(CCCCn2c(=O)sc3ccccc32)CC1
Ratio Ki (Homo sapiens): 10.5 | Ki [1]: 0.0104 µM | Ki [2]: 0.00099 µM

COc1ccccc1N1CCN(CCCCn2c(=O)sc3ccccc32)CC1
Ratio Ki (Homo sapiens): 3.16 | Ki [1]: 0.0246 µM | Ki [2]: 0.00777 µM

O=c1sc2ccccc2n1CCCCN1CCN(c2ccccc2)CC1
Ratio Ki (Homo sapiens): 25 | Ki [1]: 0.913 µM | Ki [2]: 0.0365 µM

O=c1oc2ccccc2n1CCCCCCCN1CCN(c2ccccc2)CC1
Ratio Ki (Homo sapiens): 0.65 | Ki [1]: 0.0298 µM | Ki [2]: 0.0456 µM

O=c1oc2ccccc2n1CCCCCN1CCN(c2ccccc2)CC1
Ratio Ki (Homo sapiens): 0.33 | Ki [1]: 0.0192 µM | Ki [2]: 0.0574 µM

O=c1sc2ccccc2n1CCCCCN1CCN(c2ccccc2)CC1
Ratio Ki (Homo sapiens): 4.78 | Ki [1]: 0.0957 µM | Ki [2]: 0.02 µM

O=c1oc2ccccc2n1CCCCCCN1CCN(c2ccccc2)CC1
Ratio Ki (Homo sapiens): 0.28 | Ki [1]: 0.00396 µM | Ki [2]: 0.0141 µM

O=c1[nH]c2ccccc2n1CCCCCN1CCN(c2ccc(Cl)cc2)CC1
Ki [1]: 0.454 µM

O=C1Cc2ccccc2N1CCCCN1CCN(c2cccc3ccccc23)CC1
Ki [1]: 0.047 µM | Ki [2]: 0.022 µM

O=C1c2cccc3cccc(c23)N1CCCCCN1CCN(c2ccccc2)CC1
inhibition [3]: 92%
